In patent EP2535046A1 (priority 2011, dated 2012):

Columns and labels:
Fkbp51 = tested on: Fkbp51; parameters: species or system mice; conditions: mouse, in vivo
[1] = mouse, in vivo
splenocytes subsets = tested on: splenocytes subsets; parameters: species or system mice; conditions: mouse, in vivo
RABV CVS-NIV = tested on: RABV CVS-NIV; parameters: species or system C57BL/6J mice; conditions: mouse, in vivo
[2] = tested on: STAT3, STAT3-P, ERK1/2, phosphorylated-ERK1/2 (Thr202/Tyr204); parameters: species or system mice; conditions: mouse, in vivo
[3] = tested on: IL-6, CXCL10, IFN-γ and TNFα; parameters: species or system mice; conditions: mouse, in vivo
[4] = tested on: thymocytes and splenocytes; parameters: species or system mice; conditions: mouse, in vivo
RABV [5] = tested on: RABV; parameters: species or system mice; conditions: mouse, in vivo
nNOS = tested on: nNOS; parameters: species or system mice; conditions: mouse, in vivo
RABV [6] = tested on: RABV; parameters: species or system mice; conditions: mouse, in vivo; remark: listed apart in the source

## CNC1(C)C2CCC(C2)C1(C)C (stereo not drawn) [mecamylamine, N,2,3,3-Tetramethylbicyclo[2.2.1] heptan-2 amine]
Fkbp51
  transcription of the glucocorticoid-inducible gene Fkbp51: no effect
[1]
  side effects such as weight loss or behavior modification: does not induced obvious side effects
Splenocytes subsets
  main subsets of spleen cells (TCRαβ, CMH class II, CD4, CD8, plasmocytes expressing IgG): prevents the RABV-mediated disappearance
  numbers of CD4 T cells expressing CD25 and numbers of CD3 expressing CD69: restored
RABV CVS-NIV
  RABV pathogenesis: did not modify RABV pathogenesis
  clinical scores: decreases the severity of the clinical scores
  weight loss: interrupted the weight loss
[2]
  expression and phosphorylation of STAT3 and ERK1/2 in the brain: reduces expression and phosphorylation of STAT3 and ERK1/2 to levels similar to those observed in the non-infected brain
[3]
  IFN-γ and TNFα transcription in the spinal cord: slowed-down
  IL6 or CXCL10 kinetic in the spinal cord: no effect
  cytokines expression at transcriptional level (IL-6, CXCL10, IFN-γ, TNFα) in the brain: did not modify significantly
  inflammatory cytokines expression in the liver: No difference
[4]
  number of splenocytes: increased the number of splenocytes
[4]; ip, 2 mg/kg
  cellularity of the spleen (number of splenocytes): protects cellularity of the spleen
  number of thymocytes (RABV-mediated drop): no effect on the drop of thymocytes
RABV [5]
  RABV N protein transcripts among survivors: less viral transcripts than the mock-treated animals
nNOS
  nNOS transcription in the brain: block the nNOS decrease
RABV [6]
  effect on RABV specific neutralizing antibodies: no effect
